According to patent publication EP4600263A1, “KERATIN YK93-9, PREPARATION METHOD THEREFOR, PHARMACEUTICAL COMPOSITION THEREOF, AND USE THEREOF” (INSTITUTE OF MATERIA MEDICA, CHINESE ACADEMY OF MEDICAL …, priority 2022, dated 2024):
Counter-ions that a name gives are not always drawn.

What was measured:
[1] = system: acetic acid-induced writhing of mice; assay: pharmacodynamic test on mouse pain model (acetic acid-induced writhing); type: in vivo, Kunming mice; conditions: Tramadol Hydrochloride 50mg/kg; 1% acetic acid intraperitoneally, writhing within 15 minutes
Procedure: • Animals: Male Kunming mice; • Drugs: Tramadol Hydrochloride Sustained Release Tablets, Glacial acetic acid, YK93-9; • Instruments: electronic balance, timer • Experiment grouping: • Normal control group; • Positive control group: Tramadol Hydrochloride group; • Protein YK93-9, (0.5g/kg) group.
Mice in the YK93-9 (0.5g/kg) group were administered by gavage, while mice in the model group were given an equal volume of CMC-Na once a day for 7 consecutive days. 30 minutes after the last administration, 1% acetic acid was administered intraperitoneally, and the writhing times of mice within 15 minutes was recorded, and the inhibition rate of drug-induced writhing reaction was calculated. The observation criteria were concave abdominal cavity, extended hind limbs, and raised buttocks.
The inhibition rate was calculated by (Mean number of writhing reactions in the normal control group - Mean number of writhing reactions in the treatment group)/Mean number of writhing reactions in the normal control group *100%.

[2] = system: mouse prostatic hyperplasia model; assay: pharmacodynamic test on mouse prostatic hyperplasia model (subcutaneous propionate testosterone); type: in vivo, Kunming mice; conditions: 30 days; for Average weight: male Kunming mice; for prostate index: wet weight of the prostate (mg)/body weight of the mouse (g)
Procedure: • Animals: Male Kunming mice, weight: 18-20 grams • Drugs: propionate testosterone injection (Ningbo Second Hormon Factory), finasteride (Merck Sharp & Dohme, MSD) • Instruments: electronic balance • Experiment grouping: Normal control group; • Model group: Androgen loading Model; • Positive control group: finasteride (1mg/kg) group; finasteride (3 mg/kg) group; • YK93-9 (0.5g/kg) group.
Preparation of experimental animals: The experimental animals were adapted to the experimental environment (temperature 22°C±2°C, relative humidity 50%±2%) for 1 day.
Subcutaneous injection of propionate testosterone to replicate mice prostatic hyperplasia model: Mice were randomly grouped 10 in each group before the model being established. Propionate testosterone (0.01mg/kg) in soybean oil was injected subcutaneously, once a day for 30 consecutive days. Mice in the normal control group were injected subcutaneously with an equal volume of sodium carboxymethyl cellulose. Immediately after the model was established, finasteride 1mg/kg, finasteride 3m g/kg, or YK93-9 0.5g/kg were orally administered. Mice were weighed on the next day. After 30 days of administration, mice were weighed, executed. The prostate was excised through a median incision in the lower abdomen, the wet weight was weighed, and the prostate index was calculated by the wet weight of the prostate (mg)/body weight of the mouse (g).
The average value, standard deviation and standard error of the prostate index in each group were calculated. The data from the groups were compared with each other by T.TEST, and P<0.05 was considered as a significant difference.

[3] = cyclophosphamide 0.1 g/kg group, before administration
[4] = cyclophosphamide 0.1 g/kg intraperitoneally, single time
[5] = cyclophosphamide 0.1 g/kg intraperitoneally, single time, vs normal control group
[6] = cyclophosphamide 100mg/kg, vs normal control group, P<0.05
[7] = cyclophosphamide 0.1 g/kg once a week

Procedure for B16F10 melanoma: Subcutaneous inoculation of B16F10 cell suspension to replicate a mouse melanoma model: Under sterile conditions, the tumor block was removed, ground into tumor fluid, the concentration was adjusted with physiological saline to 2.58 × 10^6 /ml, and 0.2 ml was taken to evenly inoculate subcutaneously on the armpit back of mice. On the next day, the animals were randomly grouped and administration began (recorded as Day 0). […] On the day of treatment, weight was measured, 20µL of blood was obtained by taking blood from the eye socket and the blood routine analysis was performed, the tumor block was peeled off, weighed and photographed, and the tumor suppression rate was calculated.
(§1) The tumor suppression rate [(The average weight of the tumor in the normal control group - the average weight of the tumor in the experimental group) / The average weight of the tumor in the normal control group × 100 %] and average value, standard deviation and standard errors of tumor weight were calculated. The data from the groups were compared with each other by T.TEST, and P<0.05 was considered as a significant difference.
Procedure for EL-4 lymphoma: Subcutaneous inoculation of EL-4 cell suspension to replicate a mouse lymphoma model: The EL-4 tumor tissue was ground into a suspension using a glass homogenizer, the tumor suspension was aspirated with a syringe, the number of live cells was calculated, the cell concentration was adjusted to 2.0*10^6/ml with physiological saline, and then the suspension was injected into the left armpit of mice with 0.2 ml/mouse. […] On the day of treatment, weight was measured, 20µl of blood was obtained from the orbital blood and the routine blood analysis was performed. The tumor blocks were stripped, weighed and photographed, and the tumor suppression rate was calculated.
as §1
Procedure for Lewis lung cancer: Subcutaneous inoculation of Lewis cell suspension to replicate mouse breast cancer model: The Lewis tumor tissue was ground into a suspension with a glass homogenizer, the tumor suspension was aspirated with a syringe, the number of live cells was calculated, the concentration of the cells was adjusted to 2.6*10^6/ml with physiological saline, and then the suspension was injected to the left armpit of the mouse with 0.2 ml/mouse. […] On the day of the treatment, the weight was measured, 20µl of blood was obtained from the orbital blood and the routine blood analysis was performed. The tumor blocks were stripped, weighed and photographed, and the tumor suppression rate was calculated.
The tumor suppression rate [(The average weight of the tumor in the normal control group - the average weight of the tumor in the experimental group) / The average weight of the tumor in the normal control group × 100 %] and the average value, standard deviation and standard errors of tumor weight were calculated . The data from the groups were compared with each other by T.TEST, and P<0.05 was considered as a significant difference.

COc1cccc(C2(O)CCCCC2CN(C)C)c1 (stereo not drawn) [Tramadol Hydrochloride]
Number of writhing [1]: 0.0±0.00

O=P1(N(CCCl)CCCl)NCCCO1 (stereo not drawn) [cyclophosphamide, Cyclophosphamide]
Change of weight Before administration (Lewis lung cancer; [3]): 17.60 ± 0.59 g | Change of weight After administration (Lewis lung cancer; [4]): 19.95 ± 0.77 g | Tumor weight (Lewis lung cancer; [4]): 0.14 ± 0.09 g | Tumor suppression (Lewis lung cancer; [5]): 95.35% | Tumor weight (EL-4 lymphoma; [4]): 0.12 ± 0.03 g | Tumor suppression (EL-4 lymphoma; [5]): 95.67% | leukocytes (routine blood analysis) (EL-4 lymphoma; [6]): significantly reduced | lymphocytes (routine blood analysis) (EL-4 lymphoma; [6]): significantly reduced | monocytes (routine blood analysis) (EL-4 lymphoma; [6]): significantly reduced | neutrophils (routine blood analysis) (EL-4 lymphoma; [6]): significantly reduced | Change of weight Before administration (B16F10 melanoma; [3]): 18.97 ± 0.55 g | Change of weight After administration (B16F10 melanoma; [7]): 19.07 ± 1.46 g | Tumor weight (B16F10 melanoma; [7]): 0.26 ± 0.11 g | Tumor suppression (B16F10 melanoma; cyclophosphamide 0.1 g/kg once a week, vs normal control group): 85.82%

CC(C)(C)NC(=O)[C@H]1CC[C@H]2[C@@H]3CC[C@H]4NC(=O)C=C[C@]4(C)[C@H]3CC[C@]12C [finasteride]
wet weight of the prostate ([2]; finasteride 1mg/kg orally): 31.8 ± 4.8 mg | Average weight ([2]; finasteride 1mg/kg orally): 43.5 ± 3.5 g | prostate index ([2]; finasteride 1mg/kg orally): 0.75±0.12 | wet weight of the prostate ([2]; finasteride 3mg/kg orally): 29.2 ± 1.4 mg | Average weight ([2]; finasteride 3mg/kg orally): 40.7 ± 3.1 g | prostate index ([2]; finasteride 3mg/kg orally): 0.72±0.08
